Results taken from US4406888A, “Aqueous micellar solutions of levonantradol and N-methyllevonantradol and lyophilic forms thereof for reconstitution” (Pfizer Inc., priority 1981, dated 1983).
Structures can show the parent of a compound that is named as a salt.

Experiments:
[1] = accelerated stability studies, at least nine weeks, 37° C.
Method: The procedure comprises dissolving the Polysorbate 80 USP in about 60% of the required water (previously degassed to remove dissolved air) at room temperature. […] The pharmaceutical necessities; i.e., mannitol, sodium citrate and sodium metabisulfite were then added together with about 20-25% of the remaining volume of water required. The pH was adjusted to 5.5 by addition of hydrochloric acid (10%) and the balance of water then added. The resulting formulation was made sterile by filtration and stored in amber vials sealed under a nitrogen atmosphere.
The samples are analyzed for activity by a HPLC method using a Chromegabond C-8 column (silica silylated with octyltrichlorosilane, available from E. S. Industries, 8 South Maple Avenue, Marlton, N.J. 08053). The column is 4.6 mm I.D.×30 cm.; the mobile phase is 60% acetonitrile-40% phosphate buffer (0.05 M, pH 6.3) and the flow rate is 2 ml. per minute. Detection is by UV at 210 nm.

[2] = Stability of the active ingredient upon storage (general statement); format: physicochemical; details: particularly in solution
[3] = Water solubility in micellar solutions of Polysorbate 80 USP; format: physicochemical; details: for Solubility: 25° C., pH 5.0, based on 88.8% activity
Method: This temperature dependence of water solubilty of active ingredient is overcome by the use of sufficient concentration of amphiphile above the cmc such that the solubility of active ingredient is […] at said lowest temperature. The water solubility of active ingredients increases with increasing concentration above the cmc as is shown below for levonantradol in micellar solutions of Polysorbate 80 USP at pH 5.0 and 25° C.

Row | SMILES | stability in micellar solutions [1] | stability upon storage [2] | water solubility ([3]; with decreasing temperature) | Solubility ([3]; 0.1% (w/v) Polysorbate 80 USP) [µg/mL] | Solubility ([3]; 0.2% (w/v) Polysorbate 80 USP) [µg/mL] | Solubility ([3]; 0.3% (w/v) Polysorbate 80 USP) [µg/mL] | Solubility ([3]; 0.4% (w/v) Polysorbate 80 USP) [µg/mL] | Solubility ([3]; 0.5% (w/v) Polysorbate 80 USP) [µg/mL] | Solubility ([3]; 0.8% (w/v) Polysorbate 80 USP) [µg/mL] | Solubility ([3]; 1.0% (w/v) Polysorbate 80 USP) [µg/mL] | Solubility ([3]; 1.5% (w/v) Polysorbate 80 USP) [µg/mL] | Solubility ([3]; 2.0% (w/v) Polysorbate 80 USP) [µg/mL] | Solubility ([3]; 2.5% (w/v) Polysorbate 80 USP) [µg/mL] | Solubility ([3]; 3.0% (w/v) Polysorbate 80 USP) [µg/mL] | Solubility ([3]; 3.5% (w/v) Polysorbate 80 USP) [µg/mL] | Solubility ([3]; 4.0% (w/v) Polysorbate 80 USP) [µg/mL] | Solubility ([3]; 4.5% (w/v) Polysorbate 80 USP) [µg/mL] | Solubility ([3]; 5.0% (w/v) Polysorbate 80 USP) [µg/mL] | Solubility ([3]; 7.0% (w/v) Polysorbate 80 USP) [µg/mL] | water solubility ([3]; presence of a relatively low concentration of Polysorbate 80)
1 | CC(=O)Oc1cc(O[C@H](C)CCCc2ccccc2)cc2c1[C@@H]1C[C@H](O)CC[C@H]1[C@H](C)N2 [Levonantradol, [6S-[3S*,6-alpha,6a-alpha,9-alpha,10a-beta]]-5,6,6a,7,8,9,10,10a-octahydro-6-methyl-3-(1-methyl-4-phenylbutoxy)-1,9-phenanthridinediol 1-acetate, hydrochloride] | completely stable | subject to decomposition upon storage | reduced water solubility with decreasing temperature | – | – | – | – | – | – | – | – | – | – | – | – | – | – | – | – | –
2 | CC(=O)Oc1cc(O[C@H](C)CCCc2ccccc2)cc2c1[C@@H]1C[C@H](O)CC[C@H]1[C@H](C)N2C [N-methyllevonantradol] | – | subject to decomposition upon storage | reduced water solubility with decreasing temperature | – | – | – | – | – | – | – | – | – | – | – | – | – | – | – | – | –
3 | CC(=O)Oc1cc(O[C@H](C)CCCc2ccccc2)cc2c1[C@@H]1C[C@H](O)CC[C@H]1[C@H](C)N2 [Levonantradol.HC1, [6S-[3S*,6-alpha,6a-alpha,9-alpha,10a-beta]]-5,6,6a,7,8,9,10,10a-octahydro-6-methyl-3-(1-methyl-4-phenylbutoxy)-1,9-phenanthridinediol 1-acetate, hydrochloride] | – | – | – | 2.2 | 67 | 130 | 290 | 430 | 880 | 1230 | 2040 | 2850 | 3810 | 4440 | 5600 | 6300 | 6990 | 7550 | 11280 | markedly increased
